Reference: patent publication US8143374B2, “Polypeptide derivatives of parathyroid hormone (PTH)” (The General Hospital Corporation, priority 2006, dated 2012)
Where a SMILES comes first, the peptide text is derived from it. Where no end group is shown, it is not given here. [ ]: non-standard residue; d: D form. Cha = N[C@@H](CC1CCCCC1)C(=O)O

What was measured:
[1] = target: T1, PTHR-delNt (Homo sapiens, UniProt Q03431, DEL24-181); test: Competition binding in COS-7 cell membranes with 125I-[Aib1,3,M]PTH(1-15)NH2 tracer; conditions: for IC50: [Ala1,Arg19]hPTH(1-31)NH2 analogs, COS-7 membranes cotransfected with negative-dominant Gαs, read-out: PTHR-delNT (COS-7) IC50; for effect on binding to PTHR-delNt (in words) / reduction (alteration) of binding affinity for PTHR-delNt relative to parent peptide: COS-7 membranes; for reduction (alteration) of binding affinity for PTHR-delNt relative to parent peptide: versus the respective parent peptide
T1 construct: expressed in transfected cells; host or cells: COS-7 cells, transient co-transfection; membranes prepared
T1 sequence (Q03431 with tags, fused parts or gaps DEL24-181): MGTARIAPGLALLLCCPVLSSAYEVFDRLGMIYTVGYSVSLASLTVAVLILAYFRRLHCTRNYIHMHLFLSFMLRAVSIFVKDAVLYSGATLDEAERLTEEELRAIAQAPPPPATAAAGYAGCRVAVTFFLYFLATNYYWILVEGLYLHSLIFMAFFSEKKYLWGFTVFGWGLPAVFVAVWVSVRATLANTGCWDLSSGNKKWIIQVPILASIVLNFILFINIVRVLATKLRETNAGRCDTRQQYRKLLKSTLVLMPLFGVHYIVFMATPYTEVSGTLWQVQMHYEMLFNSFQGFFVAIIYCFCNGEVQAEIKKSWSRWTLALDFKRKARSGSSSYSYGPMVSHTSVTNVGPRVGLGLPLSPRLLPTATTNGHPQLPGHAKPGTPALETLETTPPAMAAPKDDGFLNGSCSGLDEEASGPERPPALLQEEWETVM
Protocol: PTHR-delNt is a derivative of the human PTHR that is deleted for most (Ala^24-Arg^181) of the amino-terminal extracellular domain (Shimizu, M., et al. (2001) Endocrinology 142:3068-3074). This PTHR construct was expressed in COS-7 cells via transient DNA transfection. For cAMP assays, the cells were transfected in 24-well plates using 0.2 μg of plasmid DNA and 0.6 μl of Fugene-6 reagent (Roche Diagnostics, Indianapolis Ind.) per well, and assays were performed on the intact cells three to four days after transfection. For binding assays, cell membranes were prepared from transfected COS-7 cells. To increase the maximal binding of ^125I-[Aib^1,3,M]PTH(1-15)NH2 to PTHR-delNt in these membranes, the cells were cotransfected with a negative dominant mutant Gαs protein (Gαs^ND). This mutant Gαs subunit is thought to couple to cognate receptors, and thus stabilize high affinity receptor conformations, more efficiently than does wild-type Gαs, without increasing basal cAMP levels (Berlot, C. H. (2002) J Biol Chem 277:21080-5). A precursor of this mutant Gαs, Gαs(α3β5), was recently used to increase binding of ^125I-[Aib^1,3,M]PTH(1-15)NH2 to PTHR-delNt in COS-7 cell membranes (Dean, T., (2006) Mol Endocrinol 20:931-942). Gαs^ND, which contains the same five amino acid replacement of corresponding Gαi residues in the α3β5 loop as Gαs(α3β5), plus the point mutations of Gly^226 to Ala, which increases affinity for Gβ/γ, and Ala^366 to Ser, which decreases affinity for GDP, yields approximately two-fold higher levels of specific binding of ^125I-[Aib^1,3,M]PTH(1-15)NH2 than does Gαs(α3β5) (data not shown). For the current membrane preparations, COS-7 cells were co-transfected in six-well plates using 1 μg of each plasmid DNA encoding PTHR-delNt and Gαs^ND, and 6 μl of Fugene-6 reagent (Roche Diagnostics, Indianapolis Ind.) per well. Cells were harvested three days after transfection, and membranes were prepared as described (Dean, T., et al. (2006) Mol Endocrinol 20:931-942).
Receptor binding—Binding to the wild-type human PTHR in intact HKRK-B7 cells and ROS 17/2.8 cells was assessed using ^125I-PTH(1-34) as a tracer radioligand, as described (Shimizu, M., (2001) Endocrinology 142:3068-3074). In brief, the cells in 24-well plates (about 500,000 cells per well) were incubated in binding buffer containing radioligand (about 100,000 cpm per well) with or without unlabeled peptide ligand (3×10^−9 to 1×10^−5 M) for four hours at 15° C. The binding mixture was then removed by aspiration, the cells were rinsed three times with binding buffer, lysed in 1 M NaOH, and the entire lysate was counted for gamma-irradiation in a gamma counter. Binding to PTHR-delNt in COS-7 cell membranes was assessed in 96-well, vacuum filtration plates (Multiscreen-Durapore HV, […] membranes, Millipore Corp., Millford, Mass.) using ^125I-[Aib^1,3,M]PTH(1-15)NH2 as a tracer radioligand, as described (Dean, T., (2006) Mol Endocrinol 20:931-942). In brief, cell membranes (20 μg/well) were incubated in membrane binding buffer containing radioligand (30,000 cpm/well) with or without unlabeled peptide ligand (3×10^−9 to 1×10^−5 M) for 90 minutes at 21° C. The plates were then subject to rapid vacuum filtration, the filters were washed once with buffer, detached from the plate and counted for gamma-irradiation in a gamma counter. Non-specific binding was defined as the binding observed in the presence of 1×10^−6 M PTH(1-31)NH2 for HKRK-B7 and ROS 17/2.8 cells, and 1×10^−6 M [Aib^1,3,M]PTH(1-15)NH2 for PTHR-delNt. Specifically bound radioactivity was calculated as a percentage of the radioactivity specifically bound in the absence of competing ligand. […]

[2] = Circular dichroism spectroscopy, helical residues per peptide chain; format: physicochemical; conditions: [Ala1,Arg19]hPTH(1-31)NH2 analogs; calculated from [θ]222
Protocol: Circular Dichroism—CD spectra were obtained on a JASCO J-600 spectropolarimeter at 20° C. Four spectra were averaged and the data smoothed by the JASCO software. The instrument was calibrated with ammonium (+)-10-camphorsulfonate. Peptide concentrations were verified from the absorption at 280 nm, using an extinction coefficient of 5700 M^−1 for the single tryptophan. Data are expressed as the number of helical residues per peptide chain, as calculated from −[θ]222×30/28,000, where [θ]222 is the mean residue elipticity ([θ]) at 222 nm, as was described previously (Barbier, J. R., et al. (2005) J Biol Chem. 280:23771-23777).

IC50 [1] [nM] | CD helical residues [2] | reduction (alteration) of binding affinity for PTHR-delNt relative to parent peptide [1] | Compound | effect on binding to PTHR-delNt (in words) [1]
408 ± 32 | 8 |  | CC[C@H](C)[C@H](NC(=O)[C@H](CCC(=O)O)NC(=O)[C@H](CO)NC(=O)[C@@H](NC(=O)[C@H](C)N)C(C)C)C(=O)N[C@@H](CCC(N)=O)C(=O)N[C@@H](CC(C)C)C(=O)N[C@@H](CCSC)C(=O)N[C@@H](Cc1c[nH]cn1)C(=O)N[C@@H](CC(N)=O)C(=O)N[C@@H](CC(C)C)C(=O)NCC(=O)N[C@@H](CCCCN)C(=O)N[C@@H](Cc1c[nH]cn1)C(=O)N[C@@H](CC(C)C)C(=O)N[C@@H](CC(N)=O)C(=O)N[C@@H](CO)C(=O)N[C@@H](CC1CCCCC1)C(=O)N[C@@H](CCCNC(=N)N)C(=O)N[C@@H](CCCNC(=N)N)C(=O)N[C@H](C(=O)N[C@@H](CCC(=O)O)C(=O)N[C@@H](Cc1c[nH]c2ccccc12)C(=O)N[C@@H](CC(C)C)C(=O)N[C@@H](CCCNC(=N)N)C(=O)N[C@@H](CCCCN)C(=O)N[C@@H](CCCCN)C(=O)N[C@@H](CC(C)C)C(=O)N[C@@H](CCC(N)=O)C(=O)N[C@@H](CC(=O)O)C(=O)N[C@H](C(N)=O)C(C)C)C(C)C [Met^18→Cha] (H-AVSEIQLMHNLGKHLNS[Cha]RRVEWLRKKLQDV-NH2; N-terminus assumed) | 
179 ± 41 | 9 |  | CC[C@H](C)[C@H](NC(=O)[C@H](CCC(=O)O)NC(=O)[C@H](CO)NC(=O)[C@@H](NC(=O)[C@H](C)N)C(C)C)C(=O)N[C@@H](CCC(N)=O)C(=O)N[C@@H](CC(C)C)C(=O)N[C@@H](CCSC)C(=O)N[C@@H](Cc1c[nH]cn1)C(=O)N[C@@H](CC(N)=O)C(=O)N[C@@H](CC(C)C)C(=O)NCC(=O)N[C@@H](CCCCN)C(=O)N[C@@H](Cc1c[nH]cn1)C(=O)N[C@@H](CC(C)C)C(=O)N[C@@H](CC(N)=O)C(=O)N[C@@H](CC1CCCCC1)C(=O)N[C@@H](CCSC)C(=O)N[C@@H](CCCNC(=N)N)C(=O)N[C@@H](CCCNC(=N)N)C(=O)N[C@H](C(=O)N[C@@H](CCC(=O)O)C(=O)N[C@@H](Cc1c[nH]c2ccccc12)C(=O)N[C@@H](CC(C)C)C(=O)N[C@@H](CCCNC(=N)N)C(=O)N[C@@H](CCCCN)C(=O)N[C@@H](CCCCN)C(=O)N[C@@H](CC(C)C)C(=O)N[C@@H](CCC(N)=O)C(=O)N[C@@H](CC(=O)O)C(=O)N[C@H](C(N)=O)C(C)C)C(C)C [Ser^17→Cha] (H-AVSEIQLMHNLGKHLN[Cha]MRRVEWLRKKLQDV-NH2; N-terminus assumed) | 
867 ± 402 | 8 | three-fold or less | CC[C@H](C)[C@H](NC(=O)[C@H](CCC(=O)O)NC(=O)[C@H](CO)NC(=O)[C@@H](NC(=O)[C@H](C)N)C(C)C)C(=O)N[C@@H](CCC(N)=O)C(=O)N[C@@H](CC(C)C)C(=O)N[C@@H](CCSC)C(=O)N[C@@H](Cc1c[nH]cn1)C(=O)N[C@@H](CC(N)=O)C(=O)N[C@@H](CC(C)C)C(=O)NCC(=O)N[C@@H](CCCCN)C(=O)N[C@@H](Cc1c[nH]cn1)C(=O)N[C@@H](CC(C)C)C(=O)N[C@@H](CC(N)=O)C(=O)N[C@@H](CO)C(=O)N[C@@H](CCSC)C(=O)N[C@@H](CCCNC(=N)N)C(=O)N[C@@H](CCCNC(=N)N)C(=O)N[C@H](C(=O)N[C@@H](CCC(=O)O)C(=O)N[C@@H](CC1CCCCC1)C(=O)N[C@@H](CC(C)C)C(=O)N[C@@H](CCCNC(=N)N)C(=O)N[C@@H](CCCCN)C(=O)N[C@@H](CCCCN)C(=O)N[C@@H](CC(C)C)C(=O)N[C@@H](CCC(N)=O)C(=O)N[C@@H](CC(=O)O)C(=O)N[C@H](C(N)=O)C(C)C)C(C)C [Trp^23→Cha] (H-AVSEIQLMHNLGKHLNSMRRVE[Cha]LRKKLQDV-NH2; N-terminus assumed) | little or no effect on binding to PTHR-delNt
564 ± 172 | 9 |  | CC[C@H](C)[C@H](NC(=O)[C@H](CCC(=O)O)NC(=O)[C@H](CO)NC(=O)[C@@H](NC(=O)[C@H](C)N)C(C)C)C(=O)N[C@@H](CCC(N)=O)C(=O)N[C@@H](CC(C)C)C(=O)N[C@@H](CCSC)C(=O)N[C@@H](Cc1c[nH]cn1)C(=O)N[C@@H](CC(N)=O)C(=O)N[C@@H](CC(C)C)C(=O)NCC(=O)N[C@@H](CCCCN)C(=O)N[C@@H](Cc1c[nH]cn1)C(=O)N[C@@H](CC(C)C)C(=O)N[C@@H](CC(N)=O)C(=O)N[C@@H](CO)C(=O)N[C@@H](CCSC)C(=O)N[C@@H](CCCNC(=N)N)C(=O)N[C@@H](CCCNC(=N)N)C(=O)N[C@@H](CC1CCCCC1)C(=O)N[C@@H](CCC(=O)O)C(=O)N[C@@H](Cc1c[nH]c2ccccc12)C(=O)N[C@@H](CC(C)C)C(=O)N[C@@H](CCCNC(=N)N)C(=O)N[C@@H](CCCCN)C(=O)N[C@@H](CCCCN)C(=O)N[C@@H](CC(C)C)C(=O)N[C@@H](CCC(N)=O)C(=O)N[C@@H](CC(=O)O)C(=O)N[C@H](C(N)=O)C(C)C [Val^21→Cha] (H-AVSEIQLMHNLGKHLNSMRR[Cha]EWLRKKLQDV-NH2; N-terminus assumed) | 
466 ± 298 | 9 |  | CC[C@H](C)[C@H](NC(=O)[C@H](CCC(=O)O)NC(=O)[C@H](CO)NC(=O)[C@@H](NC(=O)[C@H](C)N)C(C)C)C(=O)N[C@@H](CCC(N)=O)C(=O)N[C@@H](CC(C)C)C(=O)N[C@@H](CCSC)C(=O)N[C@@H](Cc1c[nH]cn1)C(=O)N[C@@H](CC(N)=O)C(=O)N[C@@H](CC(C)C)C(=O)NCC(=O)N[C@@H](CCCCN)C(=O)N[C@@H](Cc1c[nH]cn1)C(=O)N[C@@H](CC(C)C)C(=O)N[C@@H](CC(N)=O)C(=O)N[C@@H](CO)C(=O)N[C@@H](CCSC)C(=O)N[C@@H](CCCNC(=N)N)C(=O)N[C@@H](CCCNC(=N)N)C(=O)N[C@H](C(=O)N[C@@H](CCC(=O)O)C(=O)N[C@@H](Cc1c[nH]c2ccccc12)C(=O)N[C@@H](CC(C)C)C(=O)N[C@@H](CCCNC(=N)N)C(=O)N[C@@H](CCCCN)C(=O)N[C@@H](CCCCN)C(=O)N[C@@H](CC(C)C)C(=O)N[C@@H](CCC(N)=O)C(=O)N[C@@H](CC(=O)O)C(=O)N[C@@H](CC1CCCCC1)C(N)=O)C(C)C [Val^31→Cha] (H-AVSEIQLMHNLGKHLNSMRRVEWLRKKLQD[Cha]-NH2; N-terminus assumed) | 
434 ± 84 | 7 | less than three-fold | AVSEIQLMHNLGKHLNSMRRVEELRKKLQDV-NH2 [Trp^23→Glu] | only mildly impaired binding to PTHR-delNt
